pEC50: −log10 of the molar value.
biological target: T1, STING (Homo sapiens, UniProt Q86WV6, G230A/H232R/R293Q/R71H); assay: STING reporter assay (luciferase) in THP1-Dual KO-IFNAR2 cells stimulated with 2′3′cGAMP; type: cell-based; conditions: 2′3′cGAMP 15 μM final, 24 h, luciferase reporter activity, read-out: Pharmaron, THP1_IFNAR2 STING 24 h Luci Normalized: GeoMean EC50
T1 construct: host or cells: THP1-Dual KO-IFNAR2 cells
In short: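 THP1-Dual KO-IFNAR2 cells (2×10E6 cells/mL) exposed to compounds at 0.0017-100 μM final and stimulated with 2′3′cGAMP (15 μM final) delivered via Lipofectamine 2000. After 24 h at 37° C., secreted luciferase in supernatant read with QUANTI-Luc Plus; EC50 derived from luminescence.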

T1 sequence (Q86WV6 whole entry R71H/G230A/H232R/R293Q): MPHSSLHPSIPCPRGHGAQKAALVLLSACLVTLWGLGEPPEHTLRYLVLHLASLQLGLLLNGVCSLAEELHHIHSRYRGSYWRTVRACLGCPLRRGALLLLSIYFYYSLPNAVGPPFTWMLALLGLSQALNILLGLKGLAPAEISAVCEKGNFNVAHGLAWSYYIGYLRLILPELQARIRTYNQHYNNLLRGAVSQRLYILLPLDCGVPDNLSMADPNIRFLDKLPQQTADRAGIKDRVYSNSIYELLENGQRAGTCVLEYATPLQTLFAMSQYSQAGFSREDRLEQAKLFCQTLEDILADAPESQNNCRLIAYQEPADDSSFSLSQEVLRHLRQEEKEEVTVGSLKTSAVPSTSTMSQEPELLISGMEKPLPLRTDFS

| pEC50 | Compound |
| --- | --- |
| 6.00 to 6.70 | O=C(Nc1c[nH]c2ccc(OCC[C@@H]3C[C@@H]4CN(CC(F)(F)F)C[C@@H]4C3)cc12)c1cscn1 [Compound 193, N-(5-(2-((3aR,5r,6aS)-2-(2,2,2-trifluoroethyl)octahydrocyclopenta[c]pyrrol-5-yl)ethoxy)-1H-indol-3-yl)thiazole-4-carboxamide] |
| 6.00 to 6.70 | O=C(Nc1c[nH]c2ccc(CCOc3ccc(C(F)(F)F)cc3)cc12)c1ccncc1 [Compound 194, N-(5-(2-(4-(trifluoromethyl)phenoxy)ethyl)-1H-indol-3-yl)isonicotinamide] |
| 6.00 to 6.70 | O=C(Nc1c[nH]c2ccc(CCOc3ccc(C(F)(F)F)cc3)cc12)c1cccnc1 [Compound 195, N-(5-(2-(4-(trifluoromethyl)phenoxy)ethyl)-1H-indol-3-yl)nicotinamide] |
| 5.30 to 6.00 | O=C(Nc1c[nH]c2ccc(CCOc3ccc(C(F)(F)F)cc3)cc12)c1ccccn1 [Compound 196, N-(5-(2-(4-(trifluoromethyl)phenoxy)ethyl)-1H-indol-3-yl)picolinamide] |
| 6.00 to 6.70 | O=C(CC1CC1)Nc1c[nH]c2ccc(CCOc3ccc(C(F)(F)F)cc3)cc12 [Compound 197, 2-cyclopropyl-N-(5-(2-(4-(trifluoromethyl)phenoxy)ethyl)-1H-indol-3-yl)acetamide] |
| 6.00 to 6.70 | O=C(Nc1c[nH]c2ccc(CCOc3ccc(C(F)(F)F)cc3)cc12)C1CC2(CC2)C1 [Compound 198, N-(5-(2-(4-(trifluoromethyl)phenoxy)ethyl)-1H-indol-3-yl)spiro[2.3]hexane-5-carboxamide] |
| 6.00 to 6.70 | CC12CC(C(=O)Nc3c[nH]c4ccc(CCOc5ccc(C(F)(F)F)cc5)cc34)(C1)C2 [Compound 199, 3-methyl-N-(5-(2-(4-(trifluoromethyl)phenoxy)ethyl)-1H-indol-3-yl)bicyclo[1.1.1]pentane-1-carboxamide] |
| 6.00 to 6.70 | O=C(Nc1c[nH]c2ccc(CCOc3ccc(C(F)(F)F)cc3)cc12)C1CC12CC2 (centres unmarked) [Compound 200, N-(5-(2-(4-(trifluoromethyl)phenoxy)ethyl)-1H-indol-3-yl)spiro[2.2]pentane-1-carboxamide] |
| 6.00 to 6.70 | O=C(Nc1c[nH]c2ccc(CCOc3ccc(C(F)(F)F)cc3)cc12)c1nccs1 [Compound 201, N-(5-(2-(4-(trifluoromethyl)phenoxy)ethyl)-1H-indol-3-yl)thiazole-2-carboxamide] |
| 6.00 to 6.70 | O=C(Nc1c[nH]c2ccc(CCOc3ccc(C(F)(F)F)cc3)cc12)c1cscn1 [Compound 202, N-(5-(2-(4-(trifluoromethyl)phenoxy)ethyl)-1H-indol-3-yl)thiazole-4-carboxamide] |
| 6.00 to 6.70 | Cn1nccc1C(=O)Nc1c[nH]c2ccc(OCCc3ccc(C(F)(F)F)cc3)cc12 [Compound 203, 1-methyl-N-(5-(4-(trifluoromethyl)phenethoxy)-1H-indol-3-yl)-1H-pyrazole-5-carboxamide] |
| 6.00 to 6.70 | CC1(C(=O)Nc2c[nH]c3ccc(OCC[C@@H]4C[C@@H]5CN(CC(F)(F)F)C[C@@H]5C4)cc23)CC2(COC2)C1 [Compound 205, 6-methyl-N-(5-(2-((3aR,5r,6aS)-2-(2,2,2-trifluoroethyl)octahydrocyclopenta[c]pyrrol-5-yl)ethoxy)-1H-indol-3-yl)-2-oxaspiro[3.3]heptane-6-carboxamide] |
| 6.00 to 6.70 | O=C(Nc1c[nH]c2ccc(OCC[C@@H]3C[C@@H]4CN(CC(F)(F)F)C[C@@H]4C3)cc12)C1CC2(COC2)C1 [Compound 206, N-(5-(2-((3aR,5r,6aS)-2-(2,2,2-trifluoroethyl)octahydrocyclopenta[c]pyrrol-5-yl)ethoxy)-1H-indol-3-yl)-2-oxaspiro[3.3]heptane-6-carboxamide] |
| 6.00 to 6.70 | O=C(Nc1c[nH]c2ccc(OCC[C@@H]3C[C@@H]4CN(CC(F)(F)F)C[C@@H]4C3)cc12)C1CC2C(C1)C2(F)F (stereo partly drawn) [Compound 208, 6,6-difluoro-N-(5-(2-((3aR,5r,6aS)-2-(2,2,2-trifluoroethyl)octahydrocyclopenta[c]pyrrol-5-yl)ethoxy)-1H-indol-3-yl)bicyclo[3.1.0]hexane-3-carboxamide] |
| 6.00 to 6.70 | O=C(Nc1c[nH]c2ccc(OCC[C@@H]3C[C@@H]4CN(CC(F)(F)F)C[C@@H]4C3)cc12)C1C2COCC21 (stereo partly drawn) [Compound 210, N-(5-(2-((3aR,5r,6aS)-2-(2,2,2-trifluoroethyl)octahydrocyclopenta[c]pyrrol-5-yl)ethoxy)-1H-indol-3-yl)-3-oxabicyclo[3.1.0]hexane-6-carboxamide] |
| 6.00 to 6.70 | O=C(Nc1c[nH]c2ccc(OCc3ccc(C(F)(F)F)cc3)cc12)c1ccccc1 [Compound 218, N-(5-((4-(trifluoromethyl)benzyl)oxy)-1H-indol-3-yl)benzamide] |
| 6.00 to 6.70 | O=C(Nc1c[nH]c2ccc(OCc3ccc(C(F)(F)F)cc3)cc12)C1CC2(CC2)C1 [Compound 221, N-(5-{[4-(trifluoromethyl)phenyl]methoxy}-1H-indol-3-yl)spiro[2.3]hexane-5-carboxamide] |
| 6.00 to 6.70 | O=C(Nc1c[nH]c2ccc(OCC[C@@H]3C[C@@H]4CN(CC(F)(F)F)C[C@@H]4C3)cc12)C1CC2(CC2)C1 [Compound 222, N-(5-{2-[(3aR,5R,6aS)-2-(2,2,2-trifluoroethyl)octahydrocyclopenta[c]pyrrol-5-yl]ethoxy}-1H-indol-3-yl)spiro[2.3]hexane-5-carboxamide] |
| 6.00 to 6.70 | O=C(Nc1c[nH]c2ccc(OCC[C@@H]3C[C@@H]4CN(CC(F)(F)F)C[C@@H]4C3)cc12)C1CC12CCC2 (stereo partly drawn) [Compound 223, N-(5-(2-((3aR,5R,6aS)-2-(2,2,2-trifluoroethyl)octahydrocyclopenta [c]pyrrol-5-yl)ethoxy)-1H-indol-3-yl)spiro[2.3]hexane-1-carboxamide] |
| 6.00 to 6.70 | O=C(Nc1c[nH]c2ccc(OCC[C@@H]3C[C@@H]4CN(CC(F)(F)F)C[C@@H]4C3)cc12)c1ccccc1 [Compound 224, N-(5-(2-((3aR,5r,6aS)-2-(2,2,2-trifluoroethyl)octahydrocyclopenta[c]pyrrol-5-yl)ethoxy)-1H-indol-3-yl)benzamide] |

| Compound | pEC50 |
| --- | --- |
| O=C(Nc1c[nH]c2ccc(O[C@H]3C[C@@H](c4ccc(C(F)(F)F)cc4)C3)cc12)c1cscn1 [Compound 192, N-(5-((1s,3s)-3-(4-(trifluoromethyl)phenyl)cyclobutoxy)-1H-indol-3-yl)thiazole-4-carboxamide] | 6.00 to 6.70 |
| O=C(Nc1c[nH]c2ccc(O[C@H]3C[C@@H](c4ccc(C(F)(F)F)cc4)C3)cc12)C12CC(O)(C1)C2 [Compound 204, 3-hydroxy-N-(5-(cis-3-(4-(trifluoromethyl)phenyl)cyclobutoxy)-1H-indol-3 yl)bicyclo[1.1.1]pentane-1-carboxamide] | 5.30 to 6.00 |
| O=C(Nc1c[nH]c2ccc(O[C@H]3C[C@H](c4ccc(C(F)(F)F)cc4)C3)cc12)C1C2COCC21 (stereo partly drawn) [Compound 207, N-(5-(trans-3-(4-(trifluoromethyl)phenyl)cyclobutoxy)-1H-indol-3-yl)-3-oxabicyclo[3.1.0]hexane-6-carboxamide] | 6.00 to 6.70 |
| O=C(Nc1c[nH]c2ccc(O[C@H]3C[C@H](c4ccc(C(F)(F)F)cc4)C3)cc12)C1CC2(COC2)C1 [Compound 211, N-{5-[(1R,3R)-3-[4-(trifluoromethyl)phenyl]cyclobutoxy]-1H-indol-3-yl}-2-oxaspiro[3.3]heptane-6-carboxamide] | 6.70 to 7.40 |
| O=C(Nc1c[nH]c2ccc(O[C@H]3C[C@H](c4ccc(C(F)(F)F)cc4)C3)cc12)C12CC(C1)C2 [Compound 212, N-{5-[(1R,3R)-3-[4-(trifluoromethyl)phenyl]cyclobutoxy]-1H-indol-3-yl}bicyclo[1.1.1]pentane-1-carboxamide] | 6.70 to 7.40 |
| O=C(Nc1c[nH]c2ccc(O[C@H]3C[C@H](c4ccc(C(F)(F)F)nc4)C3)cc12)c1ccc(C(F)(F)F)cc1 [Compound 213, 4-(trifluoromethyl)-N-(5-(trans-3-(6-(trifluoromethyl)pyridin-3-yl)cyclobutoxy)-1H-indol-3-yl)benzamide] | 6.00 to 6.70 |
| O=C(Nc1c[nH]c2ccc(O[C@H]3C[C@@H](c4ccc(C(F)(F)F)nc4)C3)cc12)c1ccc(C(F)(F)F)cc1 [Compound 214, 4-(trifluoromethyl)-N-(5-(cis-3-(6-(trifluoromethyl)pyridin-3-yl)cyclobutoxy)-1H-indol-3-yl)benzamide] | 6.70 to 7.40 |
| O=C(Nc1c[nH]c2ccc(O[C@H]3C[C@H](c4ccc(C(F)(F)F)nc4)C3)cc12)c1ccccc1 [Compound 215, N-(5-(trans-3-(6-(trifluoromethyl)pyridin-3-yl)cyclobutoxy)-1H-indol-3-yl)benzamide] | 6.00 to 6.70 |
| O=C(Nc1c[nH]c2ccc(O[C@H]3C[C@@H](c4ccc(C(F)(F)F)nc4)C3)cc12)c1ccccc1 [Compound 216, N-(5-(cis-3-(6-(trifluoromethyl)pyridin-3-yl)cyclobutoxy)-1H-indol-3-yl)benzamide] | 6.70 to 7.40 |
| Cn1cc(C(=O)Nc2c[nH]c3ccc(O[C@H]4C[C@@H](c5ccc(C(F)(F)F)nc5)C4)cc23)nn1 [Compound 217, 1-methyl-N-(5-(cis-3-(6-(trifluoromethyl)pyridin-3-yl)cyclobutoxy)-1H-indol-3-yl)-1H-1,2,3-triazole-4-carboxamide] | 6.00 to 6.70 |
| Cn1cc(C(=O)Nc2c[nH]c3ccc(O[C@H]4C[C@H](c5ccc(C(F)(F)F)nc5)C4)cc23)nn1 [Compound 219, 1-methyl-N-(5-(trans-3-(6-(trifluoromethyl)pyridin-3-yl)cyclobutoxy)-1H-indol-3-yl)-1H-1,2,3-triazole-4-carboxamide] | 6.00 to 6.70 |
| Cn1ccnc1C(=O)Nc1c[nH]c2ccc(O[C@H]3C[C@H](c4ccc(C(F)(F)F)cc4)C3)cc12 [Compound 220, 1-methyl-N-{5-[(1R,3R)-3-[4-(trifluoromethyl)phenyl]cyclobutoxy]-1H-indol-3-yl}-1H-imidazole-2-carboxamide] | 6.00 to 6.70 |

From patent US20230250060A1 (IFM Due, Inc., priority 2022, published 2023)
